For data set [1], the system named is male Wistar rats. Put plainly: Morris Water Maze (MWM), scopolamine-induced impairment of spatial learning and memory. The format is in vivo, rat. An excerpt:
The Morris Water Maze (MWM) is the favored test in behavioral neuroscience for the study of hippocampal-dependent learning and memory (see Morris R G: Developments of a Water Maze procedure for studying spatial learning in the rat; J. Neurosci. Meth. 1984 11 47-60). It is a standardized behavioral task to test spatial navigation in rodents, and is a highly sensitive test to assess cognition in animals.
In the MWM performance animals have to remember the position of a submerged platform (10×10 cm) within a circular (Ø 150 cm) water tank using visual spatial cues. A number of eight (n=8) male Wistar rats were used for each group in each experiment. In four trials per day, for four consecutive acquisition days, they are released from different starting points close to the wall of the tank to find their way to the submerged platform. Spatial learning abilty is evaluated by latency to locate the platform.
This learning impairment was reversed by 30 mg/kg of Compound 1 of the invention (i.p. administration 30 minutes prior to test start).

As usually defined, the melting point is the temperature, or range, at which the solid turns liquid. For `COc1ccc(Cl)cc1NC(=O)Nc1ccc([N+](=O)[O-])cc1O`, the melting point lay in the range of 225 to 226 °C.
The molecule `O=C(Nc1cccc(C(F)(F)F)c1)Nc1c(O)cccc1[N+](=O)[O-]` yielded a melting point of 174 to 175 °C.
As to `Nc1cc(Cl)c(Cl)cc1NC(=O)Nc1cc(C(F)(F)F)ccc1Cl`, the melting point is 207 to 209 °C.
Still for that read-out and setting: as for `O=C(Nc1cccc(C(F)(F)F)c1)Nc1ccc(O)c(Cl)c1`, the figure is 194 to 196 °C; as for `Cc1cc(O)ccc1NC(=O)Nc1cccc(C(F)(F)F)c1`, 185 to 186 °C.
`O=C(Nc1cccc(C(F)(F)F)c1)Nc1cc(Cl)c(O)c(Cl)c1` showed a melting point of 215 to 218 °C.
Same read-out and setting: the value for `O=C(Nc1cc(Cl)c(O)c(Cl)c1)Nc1cc(C(F)(F)F)ccc1Cl` was 213 to 221 °C.
Same read-out and setting: the value for `O=C(Nc1cccc(-c2ccccc2)c1)Nc1cc(Cl)c(O)c(Cl)c1` was 252 to 253 °C; that for `O=C(Nc1ccc(-c2ccccc2)cc1)Nc1cc(Cl)c(O)c(Cl)c1` was 249 to 251 °C; that for `O=C(Nc1ccc(-c2ccccc2)cc1)Nc1cc(Cl)ccc1O` was 191 to 192 °C.
As for `Cc1cc(O)cc(NC(=O)Nc2cc(C(F)(F)F)ccc2Cl)c1`, the melting point lay in the range of 190 to 192 °C.
Same read-out and setting: the value for `Cc1cc(O)cc(NC(=O)Nc2cccc(C(F)(F)F)c2)c1` was 188 to 190 °C.
The same measure, in the same setting: as for `Cc1cc(O)ccc1NC(=O)Nc1cc(C(F)(F)F)ccc1Cl`, the figure is 210 to 211 °C.
The same measure, in the same setting: as for `COc1ccc(Cl)cc1NC(=O)Nc1cc(C(F)(F)F)ccc1Cl`, the figure is 172 to 176 °C.
In the case of `O=C(Nc1cc(Cl)ccc1O)Nc1cc(C(F)(F)F)ccc1Cl` [Compound 1, N-(3-Chloro-6-hydroxy-phenyl)-N′-(2-chloro-5-trifluoromethyl-phenyl)urea], the “Reversal of scopolamine-induced learning impairment (latency to locate the platform)” value in data set [1] (30 mg/kg i.p. 30 minutes prior to test start, with 0.1 mg/kg Scopolamine s.c., four trials per day, four days) was “reversed”.
Take `CN1[C@@H]2C[C@@H](OC(=O)[C@H](CO)c3ccccc3)C[C@H]1[C@@H]1O[C@@H]12` [Scopolamine, reference compound]: the “Effect on spatial reference memory as measured in MWM (latency to locate the platform)” value in data set [1] (s.c. administration 30 minutes prior to test start) is reported as “significantly impairs”.
